Data published in patent US20240279176A1, “SUBSTITUTED TRICYCLIC HETEROCYCLIC COMPOUNDS AS METALLO-BETA-LACTAMASE INHIBITORS” (priority 2021, published 2024).
Like-named read-outs stand apart in the source and are kept apart here.

Legend:
[1] = tested on: Klebsiella pneumoniae ATCC BAA-2146; test: Checkerboard synergy assay in combination with Meropenem; assay type: cell-based; conditions: K. pneumoniae ATCC BAA-2146; for Fold reduction in meropenem MIC in the presence of compounds (μg/mL) 4: compound at 4 μg/mL; for Fold reduction in meropenem MIC in the presence of compounds (μg/mL) 8: compound at 8 μg/mL; for Fold reduction in meropenem MIC in the presence of compounds (μg/mL) 16: compound at 16 μg/mL; for Fold reduction in meropenem MIC in the presence of compounds (μg/mL) 32: compound at 32 μg/mL
Source text: (§1) The strain included in the study was Klebsiella pneumoniae ATCC BAA-2146 (Himedia®, India) with presence of New Delhi metallo-β-lactamase (NDM-1) gene. The quality control reference strains Escherichia coli ATCC 25922 and Pseudomonas aeruginosa ATCC 27853 were procured from Himedia®, India.
(§2) The fold modulation activity of test compounds, in combination with Imipenem or Meropenem, was checked against Klebsiella pneumoniae ATCC BAA-2146 strain by the broth-microdilution checkerboard synergy assay. The plates contained 5×10^5 CFU/mL bacterial inocula and 2-fold serial dilutions of the antibiotics (128-2 μg/mL) as well as test compounds (32-4 μg/mL) in a total volume of 200 μL of CA-MHB. Dimethyl sulfoxide (DMSO, ≤2.5%) was included as vehicle control. Following 16-18 h of incubation at 37° C., the MICs of antibiotics as well as drug combinations were visually inspected.

[2] = target: IMP-1 (Serratia marcescens, UniProt P52699); test: Enzyme activity: IC50 in fluorescence assay with cephalosporin substrate FC5; assay type: biochemical; conditions: 100 pM IMP-1, 10 μM FC5, 10 min pre-incubation
IMP-1, sequence (P52699 19-246, looked up, species assumed): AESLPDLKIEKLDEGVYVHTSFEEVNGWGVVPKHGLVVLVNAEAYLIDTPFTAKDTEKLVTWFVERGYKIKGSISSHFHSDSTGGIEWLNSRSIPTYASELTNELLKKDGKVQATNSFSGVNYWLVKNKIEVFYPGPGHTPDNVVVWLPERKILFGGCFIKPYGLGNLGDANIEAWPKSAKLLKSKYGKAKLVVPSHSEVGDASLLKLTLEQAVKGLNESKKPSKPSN
Method: (§3) The Class B beta-lactamases activities were measured in the presence of the test inhibitors in a fluorescence assay against an in-house synthesized fluorescent cephalosporin substrate FC5 (Berkel, et. al. J. Med. Chem. 2013, 56(17), 6945). The enzymes (NDM-1, IMP-1) and the substrate were diluted in 20 mM HEPES, pH 7.4, supplemented with 300 mM NaCl and 10 μM ZnSO4. In the assay, the final concentration of enzyme was 50 pM, and 100 pM for NDM-1, and IMP-1 respectively, and the final concentration of FC5 was 1.5 μM for NDM-1 and 10 μM for IMP-1. The test inhibitors/compounds were dissolved in dimethylsulfoxide (DMSO) and diluted in the assay with assay buffer (20 mM HEPES, pH 7.4, supplemented with 5% DMSO, 300 mM NaCl and 10 μM ZnSO4), resulting in a final concentration range of 0.008 μM to 25 μM. The assays were performed in 96-well microplate (flat bottom, black). The test inhibitors were incubated with the MBL enzyme for 10 min at room temperature, followed by addition the substrate and the fluorescence was recorded immediately (λex 380 nm, λem 460 nm) on a microplate reader. Using the initial velocity data plotted against the inhibitor concentration, the half-maximal inhibitory concentrations were calculated by an IC50 curve-fitting model in GraphPad Prism 9 software.

[3] = target: NDM-1 (Klebsiella pneumoniae, UniProt C7C422); test: as above; assay type: biochemical; conditions: 50 pM NDM-1, 1.5 μM FC5, 10 min pre-incubation
NDM-1, sequence (C7C422 29-270, looked up): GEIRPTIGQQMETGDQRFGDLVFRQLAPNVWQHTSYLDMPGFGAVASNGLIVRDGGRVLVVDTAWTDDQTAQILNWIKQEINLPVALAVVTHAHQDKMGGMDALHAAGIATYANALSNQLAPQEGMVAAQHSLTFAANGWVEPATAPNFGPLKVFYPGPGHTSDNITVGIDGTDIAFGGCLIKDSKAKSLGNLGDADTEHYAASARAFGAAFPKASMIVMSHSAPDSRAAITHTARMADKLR
Method: as §3

[4] = tested on: Klebsiella pneumoniae ATCC BAA-2146; test: Minimum inhibitory concentration (MIC), broth-microdilution (CLSI); assay type: cell-based
Source text: as §1
MIC values were identified through broth-microdilution in sterilized 96-well polystyrene flat-bottom microtitre plates (Cole-Parmer®) according to the guideline of the Clinical and Laboratory Standards Institute (CLSI) (CLSI; Methods for dilution antimicrobial susceptibility tests for bacteria that grow aerobically; Clinical Laboratory Standards Institute, M07-A09, 2012). This method involves the use of BBL™ Cation-adjusted Mueller-Hinton II Broth (CA-MHB; BD) and the strain (Klebsiella pneumoniae ATCC BAA-2146) concentration was adjusted to 5×10^5 CFU/mL. After 16-18 h of incubation at various concentrations of Imipenem, Meropenem (Alfa Aesar), or test compounds at 37° C., MIC was defined as the lowest concentration of antibiotic or test compound with no visible growth.

[5] = tested on: Klebsiella pneumoniae ATCC BAA-2146; test: Checkerboard synergy assay in combination with Imipenem; assay type: cell-based; conditions: K. pneumoniae ATCC BAA-2146; for Fold reduction in Imipenem MIC in the presence of compounds (μg/mL) 4: compound at 4 μg/mL; for Fold reduction in Imipenem MIC in the presence of compounds (μg/mL) 8: compound at 8 μg/mL; for Fold reduction in Imipenem MIC in the presence of compounds (μg/mL) 16: compound at 16 μg/mL; for Fold reduction in Imipenem MIC in the presence of compounds (μg/mL) 32: compound at 32 μg/mL
Source text: as §1, §2

[6] = ATCCBAA2146, compound alone, Imipenem series, K. pneumoniae ATCC BAA-2146, read-out: Intrinsic MIC
[7] = ATCCBAA2146, compound alone, meropenem series, K. pneumoniae ATCC BAA-2146, read-out: Intrinsic MIC

Row | Compound | Fold reduction in meropenem MIC in the presence of compounds (μg/mL) 4 [1] [fold] | Fold reduction in meropenem MIC in the presence of compounds (μg/mL) 8 [1] [fold] | Fold reduction in meropenem MIC in the presence of compounds (μg/mL) 16 [1] [fold] | Fold reduction in meropenem MIC in the presence of compounds (μg/mL) 32 [1] [fold] | IC50 [2] [µM] | IC50 [3] [µM] | MIC [4, 6] [µg/mL] | MIC [4, 7] [µg/mL] | Fold reduction in Imipenem MIC in the presence of compounds (μg/mL) 4 [5] [fold] | Fold reduction in Imipenem MIC in the presence of compounds (μg/mL) 8 [5] [fold] | Fold reduction in Imipenem MIC in the presence of compounds (μg/mL) 16 [5] [fold] | Fold reduction in Imipenem MIC in the presence of compounds (μg/mL) 32 [5] [fold] | MIC ([4]; ATCCBAA2146, antibiotic alone, read-out: MIC of meropenem against Klebsiella pneumoniae ATCC BAA-2146) [µg/mL]
1 | O=C(O)c1[nH]c2c(c1-c1cc(Cl)cc(Cl)c1)CCc1ccccc1-2 [Example 2, 3-(3,5-dichlorophenyl)-4,5-dihydro-1H-benzo[g]indole-2-carboxylic Acid] | 4 | 8 | 8 | 16 | 0.026 | 0.036 | > 64 | > 128 |  |  |  |  | 
2 | COc1ccc(F)cc1-c1c(C(=O)O)[nH]c2c1CCc1ccccc1-2 [Example 34, 3-(5-Fluoro-2-methoxyphenyl)-4,5-dihydro-1H-benzo[g]indole-2-carboxylic Acid] | 4 | 4 | 4 | 16 | 0.096 | 0.103 | > 128 | > 128 | 4 | 8 | 8 | 16 | 
3 | COc1ccccc1-c1c(C(=O)O)[nH]c2c1CCc1ccccc1-2 [Example 35, 3-(2-methoxyphenyl)-4,5-dihydro-1H-benzo[g]indole-2-carboxylic Acid] | 4 | 4 | 8 | 8 | 1.81 | 0.248 | > 128 | > 128 | 2 | 4 | 4 | 8 | 
4 | O=C(O)c1[nH]c2c(c1-c1cccc(Cl)c1)CCc1ccccc1-2 [Example 45, 3-(3-chlorophenyl)-4,5-dihydro-1H-benzo[g]indole-2-carboxylic Acid] | 2 | 4 | 4 | 8 |  | 0.132 | > 128 | > 128 | 2 | 4 | 8 | 8 | 
5 | Cc1ccc(-c2c(C(=O)O)[nH]c3c2CCc2ccccc2-3)c(F)c1 [Example 49, 3-(2-fluoro-4-methylphenyl)-4,5-dihydro-1H-benzo[g]indole-2-carboxylic Acid] | 2 | 2 | 4 | 4 | 2.05 | 0.319 | > 128 | > 128 |  |  |  |  | 
6 | Cc1cc(Cl)cc(-c2c(C(=O)O)[nH]c3c2CCc2ccccc2-3)c1 [Example 57, 3-(3-chloro-5-methylphenyl)-4,5-dihydro-1H-benzo[g]indole-2-carboxylic Acid] | 4 | 4 | 8 | 8 |  | 1.6 | > 128 | > 128 | 4 | 8 | 8 | 16 | 
7 | O=C(O)c1[nH]c2c(c1-c1cc(F)cc(Cl)c1)CCc1ccccc1-2 [Example 58, 3-(3-chloro-5-fluorophenyl)-4,5-dihydro-1H-benzo[g]indole-2-carboxylic Acid] |  |  |  |  | 0.869 | 0.009 | > 128 | > 128 | 4 | 8 | 8 | 16 | 

More lines, now with the values ahead:

Row | Fold reduction in meropenem MIC in the presence of compounds (μg/mL) 4 [1] [fold] | Fold reduction in meropenem MIC in the presence of compounds (μg/mL) 8 [1] [fold] | Fold reduction in meropenem MIC in the presence of compounds (μg/mL) 16 [1] [fold] | Fold reduction in meropenem MIC in the presence of compounds (μg/mL) 32 [1] [fold] | IC50 [2] [µM] | IC50 [3] [µM] | MIC [4, 6] [µg/mL] | MIC [4, 7] [µg/mL] | Fold reduction in Imipenem MIC in the presence of compounds (μg/mL) 4 [5] [fold] | Fold reduction in Imipenem MIC in the presence of compounds (μg/mL) 8 [5] [fold] | Fold reduction in Imipenem MIC in the presence of compounds (μg/mL) 16 [5] [fold] | Fold reduction in Imipenem MIC in the presence of compounds (μg/mL) 32 [5] [fold] | MIC ([4]; ATCCBAA2146, antibiotic alone, read-out: MIC of meropenem against Klebsiella pneumoniae ATCC BAA-2146) [µg/mL] | Compound
8 | 4 | 8 | 8 | 8 | 1.56 |  | > 128 | > 128 | 4 | 8 | 8 | 16 |  | O=C(O)c1[nH]c2c(c1-c1cc(Cl)c(Cl)c(Cl)c1)CCc1ccccc1-2 [Example 60, 3-(3,4,5-trichlorophenyl)-4,5-dihydro-1H-benzo[g]indole-2-carboxylic Acid]
9 |  |  |  |  | 3.45 | 0.196 | > 128 | > 128 | 4 | 4 | 8 | 8 |  | COc1cc(F)cc(-c2c(C(=O)O)[nH]c3c2CCc2ccccc2-3)c1 [Example 62, 3-(3-fluoro-5-methoxyphenyl)-4,5-dihydro-1H-benzo[g]indole-2-carboxylic Acid]
10 |  |  |  |  | 4.05 | 2.36 | > 128 | > 128 | 4 | 4 | 8 | 8 |  | O=C(O)c1[nH]c2c(c1-c1ccccc1)CCc1ccccc1-2 [Example 63, 3-phenyl-4,5-dihydro-1H-benzo[g]indole-2-carboxylic Acid]
11 |  |  |  |  | 0.821 | 1.42 | > 128 | > 128 | 4 | 4 | 8 | 8 |  | CC1Cc2c([nH]c(C(=O)O)c2-c2cc(F)cc(Cl)c2)-c2ccccc21 (stereo not shown) [Example 64, 3-(3-chloro-5-fluorophenyl)-5-methyl-4,5-dihydro-1H-benzo[g]indole-2-carboxylic Acid]
12 |  |  |  |  |  |  |  |  |  |  |  |  | 128 | C[C@@H](O)[C@H]1C(=O)N2C(C(=O)O)=C(S[C@@H]3CN[C@H](C(=O)N(C)C)C3)[C@H](C)[C@H]12 [meropenem, reference compound]
